Test results from patent US20240131029A1, “SELECTIVE ROCK2 INHIBITION FOR TREATMENT OF EDEMA AND ASSOCIATED CONDITIONS” (President and Fellows of Harvard College, priority 2021, published 2024).
“Also recorded” adds a separate entry of the source.

How the values were obtained:
[1] = test system: human dermal lymphatic endothelial cells (LECs), engineered lymphatic vessel; experiment: lymphatics-on-chip lymphatic drainage under cytokine challenge; assay type: cell-based
Excerpt: (§1) To overcome the issues outlined above, a microfluidic 3D culture model featuring an engineered lymphatic vessel that can drain interstitial fluid was developed. The device includes a polydimethylsiloxane (PDMS) housing and two parallel cylindrical channels within a 3D collagen hydrogel (FIG. 1A). Human dermal lymphatic endothelial cells (LECs) seeded in one channel generated an engineered lymphatic vessel (FIG. 1A) that expressed lymphatic endothelial markers with appropriate apical-basal orientation (FIG. 1A and FIG. 1B). Furthermore, stimulation with the lymphangiogenic vascular endothelial growth factor C (VEGFC) triggered lymphatic sprouting (FIG. 1C). To characterize the integrity of the lymphatic endothelium within the device, their junctional organization was examined by immunofluorescence.
To functionally assess this rudimentary lymphatic vessel required a measure of lymphatic drainage. To accomplish this, the second, cell-free channel was pressurized with a surrogate lymph fluid composed of fluorescently labeled lymph molecules, including fatty acids, phospholipids, albumin, and insoluble particles (data not shown). The interstitial fluid pressure triggered convective fluid transport into the engineered lymphatic vessel. Lymph fluid drained by the lymphatic vessel accumulated in the connected reservoirs and was collected for analysis. Human dermal blood microvascular endothelial cells-generated blood vessels or cell-free channels were used as controls. […] Time-lapse microscopy of drainage further confirmed that fluid entered the luminal space of lymphatic vessels faster than that of blood vessels (FIG. 1H and data not shown).
Inflammation is a primary driver of lymphedema (2, 9, 10), so the next set of experiments tested whether inflammatory cytokines could impair drainage in this system. […] To begin to characterize what signaling pathways might be involved in tightening the lymphatic junctions, inhibitors that might impact IL-2-induced junction assembly were identified (data not shown): PP2, a Src-family of protein tyrosine kinase inhibitor; Wortmannin, a PI3K inhibitor; Y27632, a ROCK inhibitor; GGTI298, a Rap1 inhibitor; NSC23766, a Rac1 inhibitor; Blebbistatin, a Myosin II inhibitor; and Cpd22, an integrin-linked kinase inhibitor.

[2] = test system: lymphedema in mouse tails; experiment: mouse tail lymphedema model (surgical ligation of peripheral lymphatics); assay type: in vivo
Experimental: To investigate the potential efficacy of ROCK inhibition in lymphedema, Y27632 was tested in an established mouse model of lymphedema (13, 14). Lymphedema was induced by surgical ligation of peripheral lymphatics in mouse tails (FIG. 2G). […] Tail-injured mice were left without any treatment for one month.

[3] = test system: tail vein edema; experiment: mouse tail edema following cautery injury; assay type: in vivo, mice; conditions: following cautery injury (FIG. 4A)
Experimental: Tail volume changes were quantified (FIG. 4B), and drainage to the iliac lymph nodes was assesses 1 hour after intradermal injection of Alexa647-conjugated albumin into tails of mice treated with KD025 or vehicle (FIG. 4C).

[4] = test system: LEC junctions; experiment: junction staining of engineered lymphatic vessels (immunofluorescence); assay type: cell-based, human; conditions: 20 μM, IL-2 challenge
Excerpt: as §1
Inflammation is a primary driver of lymphedema (2, 9, 10), so the next set of experiments tested whether inflammatory cytokines could impair drainage in this system. […]

[5] = clinically used ROCK inhibitors, FIG. 2C

SMILES: C[C@@H](N)[C@H]1CC[C@H](C(=O)Nc2ccncc2)CC1 [Compound Y27632]
- lymphatic drainage ([1]; GM-CSF and G-CSF treated conditions (FIG. 2A, 2B)): normalized
- lymphatic drainage ([1]; IL-2 treated lymphatic vessels): completely normalized the impaired drainage
- drainage to proximal lymph nodes compared to untreated control mice ([2]; 1 h after intradermal Alexa647-conjugated albumin (FIG. 2H)): tenfold higher drainage
- time to complete resolution of lymphedema following treatment ([2]; delayed treatment, one month after tail injury): ≤ 2 weeks
- reversal of existing chronic lymphedema ([2]; delayed treatment, one month after tail injury (FIG. 2I, 2J)): completely resolved the lymphedema
- lymphedema (tail volume change), prevention ([2]; treatment after surgical ligation (FIG. 2G)): completely prevented lymphedema

SMILES: O=S(=O)(c1cccc2cnccc12)N1CCCNCC1 [Fasudil]
- lymphatic drainage [1, 5]: similarly improved lymphatic drainage

SMILES: CC(C)NC(=O)COc1cccc(-c2nc(Nc3ccc4[nH]ncc4c3)c3ccccc3n2)c1 [KD025, 2-[3-[4-(1H-indazol-5-ylamino)-2-quinazolinyl]phenoxy]-N-(1-methylethyl)-acetamide]
- lymphatic drainage ([1]; 20 μM, IL-2 challenge (FIG. 3L)): reversed; also recorded: sufficient to reduce lymphatic drainage
- visible tail vein edema swelling [3]: reduced visible tail vein edema swelling
- tightening of the LEC junctions [4]: reversed tightening of the LEC junctions

SMILES: C[C@H]1CNCCCN1S(=O)(=O)c1cccc2cncc(F)c12 [Ripasudil]
- lymphatic drainage [1, 5]: similarly improved lymphatic drainage
